Legend:
[1] = tested on: advanced breast cancer; details: cited from earlier work
[2] = tested on: estradiol-induced stimulation of uterine weight; assay: inhibition of estradiol-induced stimulation of uterine weight in ovariectomized mice; format: in vivo, Balb/c mice
Experimental: FIG. 2 illustrates the effect of the indicated doses of EM-142 injected twice daily (b.i.d.) on uterine weight (mg) in adult female ovariectomized Balb/C mice treated for 4.5 days in the presence or absence of simultaneous treatment with 17β-estradiot (0.01 μg, b.i.d.). […] EM-142, and/or estradiol contained in ethanol were injected subcutaneously in the appropriate groups in a solution of 0.9% (w/v) sodium chloride and 1% (w/v) gelatin at different concentrations in 0.2 ml for EM-142, twice daily, starting on the day of ovariectomy for a total of 9 injections. Estradiol was injected at the dose of 0.01 μg in 0.2 ml, twice daily, starting on the morning after ovariectomy for a total of 8 injections. After sacrifice, the uteri were rapidly removed, freed from fat and connective tissue and weighted. Results shown in FIG. 2 are the means ± SEM of groups of 9-10 mice.

[3] = tested on: rat uterine cytosol estrogen receptor; assay: competition binding on rat uterine cytosol estrogen receptor with [3H]estradiol; details: incubation at 25° C. for 3 hours; [3H]estradiol competition
Experimental: FIG. 1 illustrates a competition binding assay of the affinity of estradiol, diethylstilbestrol, ICI 164384 (Wakeling A. E. and Bowler J., 1987; J. Endocr. 112, R7-R10) and EM-142 (an antiestrogen in accordance with the invention synthesized in example 1, herein) for the rat uterine cytosol receptor (Asselin et al., 1978; J. Steroid Biochem. 9:1079-1082).
EM-142 from example 1 was tested by competition binding on the rat uterine cytosol estrogen receptor with [^3 H]estradiol according to Asselin et al. (1976) procedure. […] (Incubation was performed at 25° C. for 3 hours).

Compound	women patients treated with remission of advanced breast cancer [1]	effect on E2-induced uterine growth at 0.3 μg ([2]; 0.3 μg s.c. twice daily, 9 injections, estradiol 0.01 μg b.i.d.)	effect on estrogenic action at 20 μg ([2]; 20 μg s.c. twice daily, 9 injections, estradiol 0.01 μg b.i.d.)	estrogenic (agonistic) effect on uterine weight ([2]; EM-142 in absence of estradiol, s.c. twice daily)	dose giving half-maximal inhibitory effect on E2-induced uterine growth ([2]; s.c. twice daily, 9 injections, estradiol 0.01 μg b.i.d.)	binding potency compared with ICI 164384 [3]	binding potency relative to 17β-estradiol (times less potent) [3] [times]
CC/C(=C(\c1ccccc1)c1ccc(OCCN(C)C)cc1)c1ccccc1 [Tamoxifen]	about 30%						
CCCCN(C)C(=O)CCCCCCCCCCC(=C(CC)c1ccc(O)cc1)c1ccc(O)cc1 [EM-142, N-butyl,N-methyl-12,13-Bis (4-hydroxyphenyl)-12-pentadecenoic amide]		significant inhibitory effect	complete reversal of estrogenic action	no estrogenic effect on uterine weight	approximately 3 μg	more potent than the antiestrogen ICI 164384	3

Source: patent US5393785A, “Therapeutic antiestrogens” (Endorecherche, Inc., priority 1992, dated 1995)
